Results on one molecule are retold here after article PMC11432405, “Development of Novel Alaninamide Derivatives with Anticonvulsant Activity and Favorable Safety Profiles in Animal Models” (International Journal of Molecular Sciences, 2024).

In one data set the target is T1, hERG potassium channel (Homo sapiens, UniProt Q12809).
T1 construct: Cerep Laboratories / Eurofins (contract assay)
As to the kind of experiment: radioligand binding potassium channel (hERG). The conditions noted are these: HEK-293 cells expressing human recombinant hERG, human recombinant HEK-293 cell, read-out: % Inhibition of Control Specific Binding. As to the method:
(§1) Binding/functional studies were performed commercially in Cerep Laboratories (Poitiers, France) using testing procedures described elsewhere. The general information is listed in Table S3 in the Supporting Information.
(§2) Table S3. The general information of radioligand binding/functional assays. […]
(§3) Potassium channel (hERG) […]
(§4) Assays were performed commercially in Eurofins Cerep SA (Celle l’Evescault, France) and Eurofins
(§5) Panlabs Discovery Services Taiwan, Ltd. (New Taipei City, Taiwan), using procedures describe

The target of another data set is T2, Potassium channel (hERG) (Homo sapiens, UniProt Q12809).
T2 construct: Cerep Laboratories / Eurofins (contract assay)
The data set is described as follows: radioligand binding potassium channel (hERG). The conditions noted are these: 100 µM, human recombinant HEK-293 cell. As to the method: as §1, §2, §3, §4, §5
(In general: Block of hERG is tested as a sign of cardiac risk.)

The test system of a further data set is 6 Hz (32 mA) seizures. The data set is described as follows: 6 Hz (32 mA) psychomotor seizure model.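 Further: adult male albino Swiss CD-1 mice, each used once, with compounds suspended in 1% Tween 80 in water as vehicle.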
Data set [1] deals with Cav1.2 (L-type) (verapamil site). The data set is described as follows: radioligand binding Cav1.2 (L-type) verapamil site. The conditions noted are these: 100 µM, rat cerebral cortex. As to the method: as §1, §2
Ca2+channel (L, verapamil site) (antagonist radioligand) […]
as §4, §5

Another data set addresses T3, Cav2.2 N-type (Rattus norvegicus, UniProt P54290).
T3 construct: Rat cerebral cortex; tissue Cerep Laboratories / Eurofins (contract assay); host or cells: rat cerebral cortex
As to the kind of experiment: radioligand binding Cav2.2 N-type. The conditions noted are these: rat cerebral cortex, antagonist radioligand. As to the method: as §1, §2
N-type Ca2+ [3H] Gabapentin binding (antagonist radioligand) […]
as §4, §5

A further data set addresses T4, GlyT1 (Rattus norvegicus, UniProt P28572).
T4 construct: Cerep Laboratories / Eurofins (contract assay)
T4 sequence (P28572 1-638): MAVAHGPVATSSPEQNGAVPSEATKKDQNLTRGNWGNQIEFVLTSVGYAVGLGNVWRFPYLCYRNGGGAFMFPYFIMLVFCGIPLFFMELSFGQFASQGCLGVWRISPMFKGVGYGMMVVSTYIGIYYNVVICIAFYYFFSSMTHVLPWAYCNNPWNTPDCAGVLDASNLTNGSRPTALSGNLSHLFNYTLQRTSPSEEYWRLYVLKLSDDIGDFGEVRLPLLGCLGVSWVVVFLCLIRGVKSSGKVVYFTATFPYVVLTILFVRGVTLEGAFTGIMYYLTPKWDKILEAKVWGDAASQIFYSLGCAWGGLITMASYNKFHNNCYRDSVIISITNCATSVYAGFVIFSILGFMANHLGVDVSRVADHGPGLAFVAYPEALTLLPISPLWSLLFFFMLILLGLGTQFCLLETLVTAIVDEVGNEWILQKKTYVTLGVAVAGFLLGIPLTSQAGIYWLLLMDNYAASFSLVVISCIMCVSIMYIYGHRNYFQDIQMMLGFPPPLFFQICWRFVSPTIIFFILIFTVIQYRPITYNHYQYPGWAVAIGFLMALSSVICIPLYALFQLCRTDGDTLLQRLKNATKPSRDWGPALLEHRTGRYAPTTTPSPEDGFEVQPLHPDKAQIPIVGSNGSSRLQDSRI
The data set is described as follows: radioligand binding GlyT1. As to conditions: rat cerebral cortex. As to the method: as §1, §2
GLYT1 (glycine transporter binding) (antagonist radioligand) […]
as §4, §5

Data set [2] deals with maximal electroshock (MES) seizures. The data set is described as follows: maximal electroshock seizure (MES) test. Format: in vivo, mice.
Setting [3] is: read-out: % Inhibition of Control Specific Binding.

SMILES strings stand for the structures. Where two headings read alike, the source gives them in different places. Bounds are passed on as bounds.

T3 sequence (P54290 25-944 limits assumed): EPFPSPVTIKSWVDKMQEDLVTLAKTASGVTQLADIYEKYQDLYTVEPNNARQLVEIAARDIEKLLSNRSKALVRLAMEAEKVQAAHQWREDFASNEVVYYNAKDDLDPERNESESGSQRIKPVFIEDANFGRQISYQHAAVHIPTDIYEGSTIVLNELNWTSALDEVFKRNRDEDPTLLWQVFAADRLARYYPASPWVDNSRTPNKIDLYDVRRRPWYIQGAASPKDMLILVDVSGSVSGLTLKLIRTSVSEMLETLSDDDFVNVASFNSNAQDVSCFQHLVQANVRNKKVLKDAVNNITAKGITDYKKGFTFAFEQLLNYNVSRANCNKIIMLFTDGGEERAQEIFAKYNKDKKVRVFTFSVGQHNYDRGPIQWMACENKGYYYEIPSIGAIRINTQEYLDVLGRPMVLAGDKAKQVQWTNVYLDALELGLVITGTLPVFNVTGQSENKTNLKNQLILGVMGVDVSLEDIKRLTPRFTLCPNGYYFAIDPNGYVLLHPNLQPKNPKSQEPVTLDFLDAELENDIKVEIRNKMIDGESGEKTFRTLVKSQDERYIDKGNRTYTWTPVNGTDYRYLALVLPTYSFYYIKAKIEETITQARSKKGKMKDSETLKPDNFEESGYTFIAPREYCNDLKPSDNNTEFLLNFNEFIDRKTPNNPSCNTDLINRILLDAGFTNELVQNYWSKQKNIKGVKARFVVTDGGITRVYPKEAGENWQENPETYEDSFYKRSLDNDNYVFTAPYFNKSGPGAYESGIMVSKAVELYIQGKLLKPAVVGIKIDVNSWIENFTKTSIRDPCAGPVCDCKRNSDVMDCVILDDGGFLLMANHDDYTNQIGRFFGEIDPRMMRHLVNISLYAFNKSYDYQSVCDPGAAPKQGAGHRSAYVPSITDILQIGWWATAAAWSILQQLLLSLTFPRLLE
T3 sequence (P54290 945-1091 limits assumed): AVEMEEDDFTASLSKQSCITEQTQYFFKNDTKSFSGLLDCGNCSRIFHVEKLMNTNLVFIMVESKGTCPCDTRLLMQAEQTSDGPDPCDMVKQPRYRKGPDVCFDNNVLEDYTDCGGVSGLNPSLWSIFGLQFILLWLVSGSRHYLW
T2 sequence (Q12809 whole entry): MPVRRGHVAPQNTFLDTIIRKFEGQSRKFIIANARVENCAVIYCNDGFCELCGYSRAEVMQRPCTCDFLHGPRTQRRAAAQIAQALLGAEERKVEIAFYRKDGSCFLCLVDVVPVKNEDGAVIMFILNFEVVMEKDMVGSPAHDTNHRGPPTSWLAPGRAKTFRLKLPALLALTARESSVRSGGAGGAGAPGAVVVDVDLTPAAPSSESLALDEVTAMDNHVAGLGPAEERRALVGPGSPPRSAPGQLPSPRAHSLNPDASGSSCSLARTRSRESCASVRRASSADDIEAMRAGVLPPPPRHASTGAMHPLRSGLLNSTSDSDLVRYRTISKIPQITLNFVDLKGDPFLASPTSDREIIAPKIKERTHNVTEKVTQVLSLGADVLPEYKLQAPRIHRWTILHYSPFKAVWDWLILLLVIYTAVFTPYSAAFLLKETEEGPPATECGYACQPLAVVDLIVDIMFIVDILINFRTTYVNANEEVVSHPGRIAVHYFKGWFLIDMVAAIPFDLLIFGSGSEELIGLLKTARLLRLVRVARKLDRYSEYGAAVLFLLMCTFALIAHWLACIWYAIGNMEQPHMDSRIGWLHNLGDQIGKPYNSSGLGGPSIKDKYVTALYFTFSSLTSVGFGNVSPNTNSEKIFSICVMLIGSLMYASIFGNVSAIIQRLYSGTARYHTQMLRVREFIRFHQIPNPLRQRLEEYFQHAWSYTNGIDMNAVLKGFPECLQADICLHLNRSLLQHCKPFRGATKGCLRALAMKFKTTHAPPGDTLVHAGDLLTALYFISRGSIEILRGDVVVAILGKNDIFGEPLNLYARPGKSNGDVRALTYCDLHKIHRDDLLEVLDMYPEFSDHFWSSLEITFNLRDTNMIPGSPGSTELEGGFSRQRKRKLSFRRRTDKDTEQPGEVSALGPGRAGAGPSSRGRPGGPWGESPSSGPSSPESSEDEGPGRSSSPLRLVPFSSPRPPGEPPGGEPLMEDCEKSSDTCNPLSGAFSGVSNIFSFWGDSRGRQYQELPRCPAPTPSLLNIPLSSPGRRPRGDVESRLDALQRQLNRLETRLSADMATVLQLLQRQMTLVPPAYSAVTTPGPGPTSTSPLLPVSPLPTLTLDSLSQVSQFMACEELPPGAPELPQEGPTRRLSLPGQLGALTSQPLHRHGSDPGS
T1 sequence (Q12809 whole entry): as above

Take `CC(C(=O)NCc1ccc(OCc2ccccc2)cc1)N1C(=O)CCC1=O` (stereo not drawn) [Compound 5, N-(4-(benzyloxy)benzyl)-2-(2,5-dioxopyrrolidin-1-yl)propanamide]: the figures for the inhibition at 100 µM on hERG potassium channel, at Cav2.2 N-type (setting [3]) and at GlyT1 (setting [3]) were 4.5%, 1.1% and 23%, respectively. The “% Inhibition of Control Specific Binding” value was “did not bind” at Potassium channel (hERG), 57.1 (100) % in data set [1], “no significant interaction” on Cav2.2 N-type (100 µM) and “no significant interaction” at GlyT1 (100 µM). Further, the ED50 – broadly, the midpoint of the dose-response relation – in the data set with 6 Hz (32 mA) seizures (Mus musculus, ip, 0.5 h, read-out: ED50 6 Hz (32 mA), mice i.p., TPE 0.5 h, 95% confidence interval in parentheses) stood at 45.2 mg/kg; in data set [2] (Mus musculus, ip, mice i.p., TPE 0.5 h, 95% confidence interval in parentheses) it was 48 mg/kg. In addition, the responders at 100 mg/kg with 6 Hz (32 mA) seizures (Mus musculus, ip, 0.5 h, read-out: protection (efficacy) in the 6 Hz (32 mA) screening) is 50%; in data set [2] (Mus musculus, ip, mice i.p., 100 mg/kg, 0.5 h, four mice, read-out: protection (efficacy) in the MES screening), 100%; in data set [2] (Mus musculus, ip, mice i.p., dose of 100 mg/kg, pretreatment time 0.5 h, read-out: MES test: number of mice protected / number of mice tested (converted)), 100%. In addition, in the data set with 6 Hz (32 mA) seizures (TD50 rotarod / ED50 6 Hz (32 mA)), the “PI (TD50/ED50) 6 Hz” value is reported as more than 6.6. Also, the “ED50 6 Hz (32 mA)” value in the data set on 6 Hz (32 mA) seizures (mice i.p., TPE 0.5 h, 95% confidence interval in parentheses) is 45.19 (37.31–54.73) mg/kg. Besides, the “PI (TD50/ED50) MES” value in data set [2] (TD50 rotarod / ED50 MES) is reported as more than 6.3.
